This is an account of results in publication PMC5681660, “Reduced hepatitis B and D viral entry using clinically applied drugs as novel inhibitors of the bile acid transporter NTCP” (Scientific Reports, 2017).

The target of the assay is T1, human NTCP (Homo sapiens, UniProt Q14973).
T1 sequence (Q14973 1-349): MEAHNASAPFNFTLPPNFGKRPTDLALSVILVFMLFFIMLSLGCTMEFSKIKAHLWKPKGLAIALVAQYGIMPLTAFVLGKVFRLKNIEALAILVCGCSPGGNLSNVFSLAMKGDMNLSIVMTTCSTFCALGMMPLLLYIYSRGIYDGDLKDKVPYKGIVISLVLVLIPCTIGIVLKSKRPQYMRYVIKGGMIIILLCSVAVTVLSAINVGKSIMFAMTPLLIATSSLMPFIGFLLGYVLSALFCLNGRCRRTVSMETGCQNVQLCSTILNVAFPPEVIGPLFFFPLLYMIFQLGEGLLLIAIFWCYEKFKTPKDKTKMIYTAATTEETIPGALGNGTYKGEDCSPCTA
In words: Screening taurocholate uptake assay (96-well, [14C]taurocholate, 10 µM drug). The note with it: for B-score functional assay: screening taurocholate uptake, 10 µM drug; for position among the hits of the screen (combined ranking of both screening assays): 1280 drugs at 10 µM, TC uptake and Myrcludex B binding screens combined.

Where [1] appears, read: ranking over the functional and the binding screening assay.
The mark [2] stands for this setting: combined ranking of functional and binding screening assays.

Counter-ions that a name gives are not always drawn.

For the compound `O=[N+]([O-])O[C@@H]1CO[C@H]2[C@@H]1OC[C@@H]2O` [Isosorbide mononitrate], the B-score functional assay is -0.263. This compound gave a Ranking score under setting [1] of 252.589. Regarding `C[C@]12N[C@H](Cc3ccccc31)c1ccccc12` [Dizocilpine maleate], the B-score functional assay was -0.357. Also, under setting [2], the Ranking score is reported as 484.42. The corresponding values for `CC(C)C[C@H](NC(=O)[C@@H](O)[C@H](N)Cc1ccccc1)C(=O)O` [Ubenimex] are 0.218 and 608.5. For `CN(C)C(=O)Oc1cc(OC(=O)N(C)C)cc(C(O)CNC(C)(C)C)c1.Cl` (centres unmarked) [Bambuterol hydrochloride] the same measures were -0.006 and 562.701. The corresponding values for `C[C@]1(Cn2ccnn2)[C@H](C(=O)O)N2C(=O)C[C@H]2S1(=O)=O` [Tazobactam] are 2.889 and 613.948. For `COc1c(N2CCNC(C)C2)c(F)cc2c(=O)c(C(=O)O)cn(C3CC3)c12` (centres unmarked) [Gatifloxacin], the B-score functional assay is reported as -0.592. Besides, the Ranking score under setting [2] was found to be 627.155.

As for `C/C=C(\C)C(=O)O[C@H]1[C@H](OC(C)=O)[C@@]2(CO)C(CC1(C)C)C1=CC[C@@H]3[C@@]4(C)CC[C@H](O[C@@H]5O[C@H](C(=O)O)[C@@H](O[C@@H]6O[C@H](CO)[C@@H](O)[C@H](O)[C@H]6O)[C@H](O)[C@H]5O[C@@H]5O[C@H](CO)[C@@H](O)[C@H](O)[C@H]5O)[C@H](CO)C4CC[C@@]3(C)[C@@]1(C)C[C@H]2O` (stereo partly drawn) [Beta-Escin], the B-score functional assay is -8.059. For the same compound, under setting [1], the Ranking score was 8.485. The corresponding values for `CCCOc1ccccc1-c1nc2nn[nH]c2c(=O)[nH]1` [Zaprinast] are -1.838 and 188.481.

Regarding `CN1CCC(OC(c2ccccc2)c2ccccc2)CC1` [Diphenylpyraline hydrochloride], the B-score functional assay is reported as -0.425. Moreover, the Ranking score under setting [1] turned out to be 142.127.

In turn, `NC(=O)N/N=C/c1ccc([N+](=O)[O-])o1` [Nitrofural] gave a B-score functional assay of 0.068. Under setting [2], the Ranking score is on record as 535.985. As for `CCc1oc2ccccc2c1C(=O)c1cc(Br)c(O)c(Br)c1` [Benzbromarone], the B-score functional assay is listed as -5.011. Also, the Ranking score under setting [1] was found to be 148.825.

With `C[C@]12CC[C@@H]3c4ccc(O)cc4CC[C@H]3[C@@H]1CC[C@@H]2O` [Estradiol-17 beta], the B-score functional assay is -4.121. The compound also had a Ranking score under setting [1] of 76.8375. For `CC[C@H](C)[C@H]1O[C@]2(C=C[C@@H]1C)C[C@@H]1C[C@@H](C/C=C(\C)[C@@H](O[C@H]3C[C@H](OC)[C@@H](O[C@H]4C[C@H](OC)[C@@H](O)[C@H](C)O4)[C@H](C)O3)[C@@H](C)/C=C/C=C3\CO[C@@H]4[C@H](O)C(C)=C[C@@H](C(=O)O1)[C@]34O)O2` [Avermectin B1a] the same measures were -1.314 and 51.7494.

Turning to `COC(=O)C1=C(C)NC(C)=C(C(=O)OC(C)C)C1c1cccc2nonc12` (centres unmarked) [Isradipine], the B-score functional assay is reported as -0.707. Under setting [1], this compound showed a Ranking score of 185.591. `CC[N+](CC)(CC)CCC(O)(c1ccccc1)C1CCCCC1.[Cl-]` (centres unmarked) [Tridihexethyl chloride] came in with a B-score functional assay of 0.93. For the same compound, the Ranking score under setting [2] was 474.251. On to `[H]/N=C(/N)N/C(=N/[H])NCCc1ccccc1` [Phenformin hydrochloride], for which the B-score functional assay stood at 0.533. The compound also showed a Ranking score under setting [1] of 172.511. For the compound `O=C(O)CCC(=O)Nc1ccc(S(=O)(=O)Nc2nccs2)cc1` [Succinylsulfathiazole], the B-score functional assay is recorded as -0.075. Under setting [1], this compound returned a Ranking score of 258.147. Consider `CN1CCC(=C2c3ccccc3Sc3ccccc32)CC1` [Pimethixene maleate], for which the B-score functional assay is -0.824. The Ranking score under setting [2] is 556.525.

Take `C[C@]12CC[C@@H]3c4ccc(O)cc4CC[C@H]3[C@@H]1C[C@@H](O)[C@@H]2O` [Estriol]: the B-score functional assay came out at 0.325. Besides, the Ranking score under setting [2] came to 589.644. As for `O=S(=O)(O)CCS` [Mesna], the B-score functional assay was -1.329. Moreover, the Ranking score under setting [1] worked out at 127.75. `CC1=C(CC(=O)O)c2cc(F)ccc2/C1=C\c1ccc([S+](C)[O-])cc1` (centres unmarked) [Sulindac]: the B-score functional assay is given as -1.878. The compound also gave a Ranking score under setting [1] of 109.727. In turn, `O=C(N[C@H](CO)[C@H](O)c1ccc([N+](=O)[O-])cc1)C(Cl)Cl` [Chloramphenicol] displayed a B-score functional assay of 2.451. Moreover, the Ranking score under setting [2] amounted to 594.757. The corresponding values for `CCC(NC(C)C)C(O)c1ccc(O)c(O)c1.CS(=O)(=O)O` (centres unmarked) [Isoetharine mesylate salt] are -0.384 and 639.265. The corresponding values for `CCN(C(C)=O)c1cccc(-c2ccnc3c(C#N)cnn23)c1` [Zaleplon] are 1.229 and 584.018. As to Colistin sulfate, the B-score functional assay is -0.917. With `CC=CC(=O)N(CC)c1ccccc1C` (mixture of isomers) [Crotamiton], the B-score functional assay is on record as -0.004. This compound also returned a Ranking score under setting [1] of 248.379. For `COc1ccc(-c2cc(=O)c3c(O)cc(O[C@@H]4O[C@H](CO[C@@H]5O[C@@H](C)[C@H](O)[C@@H](O)[C@H]5O)[C@@H](O)[C@H](O)[C@H]4O)cc3o2)cc1O` [Diosmin], the B-score functional assay was -1.635. For the same compound, under setting [1], the Ranking score is reported as 207.123.

The compound `CS(=O)(=O)O.Cc1ccc2c(c1)c1c3n2CCNC3CCC1` (centres unmarked) [Pirlindole mesylate] displayed a B-score functional assay of 0.129. Under setting [2], the Ranking score came to 496.839. With `C[C@H](CCC(=O)O)[C@H]1CC[C@H]2[C@@H]3CC[C@@H]4C[C@H](O)CC[C@]4(C)[C@H]3CC[C@]12C` [Lithocholic acid], the B-score functional assay is -6.112. Moreover, the Ranking score under setting [1] came out at 22.4499. With `CC(C)[N+](C)(CCOC(=O)C1c2ccccc2Oc2ccccc21)C(C)C` [Propantheline bromide], the B-score functional assay is -0.131. The Ranking score under setting [2] amounted to 472.136.

As to `C[C@H](CCC(=O)O)[C@H]1CC[C@H]2[C@@H]3[C@@H](O)C[C@@H]4C[C@H](O)CC[C@]4(C)[C@H]3CC[C@]12C` [ursodeoxycholic acid, reference compound], the “position among the hits of the screen (combined ranking of both screening assays)” value was ≤ 150. Besides, the “position among the hits of the screen (combined ranking of both screening assays)” value (listed as Ursodeoxycholic acid) was ≤ 100. Turning to `COC1=CC(=O)C[C@@H](C)[C@]12Oc1c(Cl)c(OC)cc(OC)c1C2=O` [Griseofulvin], the B-score functional assay was -0.69. Moreover, the Ranking score under setting [2] was 477.468. The corresponding values for `CCNCC(O)c1cccc(O)c1` (centres unmarked) [Etilefrine hydrochloride] are -0.021 and 503.552. Turning to `CCOc1ccc2ccccc2c1C(=O)N[C@@H]1C(=O)N2[C@@H]1SC(C)(C)[C@@H]2C(=O)O` [Nafcillin sodium salt monohydrate], the B-score functional assay is reported as 0.036. Moreover, the Ranking score under setting [1] worked out at 223.052. As for `CC[C@@H](CO)NCCN[C@@H](CC)CO` [Ethambutol dihydrochloride], the B-score functional assay is -3.373. The same compound displayed a Ranking score under setting [1] of 218.945. `C[C@H](Cc1cc2c(c(C(N)=O)c1)N(CCCO)CC2)NCCOc1ccccc1OCC(F)(F)F` [Silodosin] came in with a B-score functional assay of 1.072. For the same compound, the Ranking score under setting [2] came to 510.413. For `C[C@@H]1CN(c2c(F)c(N)c3c(=O)c(C(=O)O)cn(C4CC4)c3c2F)C[C@H](C)N1` [Sparfloxacin], the B-score functional assay is given as -2.411. For the same compound, the Ranking score under setting [1] was 231.849. The corresponding values for `O=C1c2c(O)cccc2Cc2cccc(O)c21` [Anthralin] are 0.019 and 68.2788. For the compound `CCOC(=O)OC(C)OC1=C(C(=O)Nc2ccccn2)N(C)S(=O)(=O)c2ccccc21` (centres unmarked) [Ampiroxicam], the B-score functional assay was 0.098. Under setting [2], the Ranking score turned out to be 519.584.

`C=C1c2cccc(O)c2C(=O)C2=C(O)[C@]3(O)C(=O)C(C(N)=O)=C(O)[C@@H](N(C)C)[C@@H]3[C@@H](O)[C@H]12` [Methacycline hydrochloride] yielded a B-score functional assay of 0.118. This compound also returned a Ranking score under setting [1] of 244.434.

With `CCCCC[C@H](O)/C=C/[C@@H]1[C@@H](C/C=C\CCCC(=O)O)[C@@H](O)C[C@H]1O` [Dinoprost trometamol], the B-score functional assay was 0.508. In addition, under setting [2], the Ranking score is 615.067. For the compound `COC(=O)Nc1nc2ccc(Sc3ccccc3)cc2[nH]1` [Fenbendazole], under setting [2], the Ranking score is on record as 1220.76. The B-score functional assay (B-score) worked out at 1.989. As to `CC(CN(C)C)CN1c2ccccc2CCc2ccccc21.O=C(O)/C=C\C(=O)O` (centres unmarked) [Trimipramine maleate salt], the B-score functional assay is reported as -0.962. For the same compound, the Ranking score under setting [1] is 129.248. Regarding `CCN(CCCCOC(=O)c1ccc(OC)c(OC)c1)C(C)Cc1ccc(OC)cc1` (centres unmarked) [Mebeverine hydrochloride], the B-score functional assay is -0.512. For the same compound, the Ranking score under setting [2] stood at 474.181. For the compound `CC(=O)Oc1ccccc1C(=O)O` [Acetylsalicylic acid], under setting [2], the Ranking score came to 1161.38. This compound returned a B-score functional assay (B-score) of 2.017.
